# Target: CD73 (Homo sapiens (Human), UniProt P21589)
# Type: biochemical
# Conditions: 1 mM NaH2PO4 in enzyme buffer, CD73 0.3 nM, AMP 15 uM
# CD73, sequence (P21589 27-574): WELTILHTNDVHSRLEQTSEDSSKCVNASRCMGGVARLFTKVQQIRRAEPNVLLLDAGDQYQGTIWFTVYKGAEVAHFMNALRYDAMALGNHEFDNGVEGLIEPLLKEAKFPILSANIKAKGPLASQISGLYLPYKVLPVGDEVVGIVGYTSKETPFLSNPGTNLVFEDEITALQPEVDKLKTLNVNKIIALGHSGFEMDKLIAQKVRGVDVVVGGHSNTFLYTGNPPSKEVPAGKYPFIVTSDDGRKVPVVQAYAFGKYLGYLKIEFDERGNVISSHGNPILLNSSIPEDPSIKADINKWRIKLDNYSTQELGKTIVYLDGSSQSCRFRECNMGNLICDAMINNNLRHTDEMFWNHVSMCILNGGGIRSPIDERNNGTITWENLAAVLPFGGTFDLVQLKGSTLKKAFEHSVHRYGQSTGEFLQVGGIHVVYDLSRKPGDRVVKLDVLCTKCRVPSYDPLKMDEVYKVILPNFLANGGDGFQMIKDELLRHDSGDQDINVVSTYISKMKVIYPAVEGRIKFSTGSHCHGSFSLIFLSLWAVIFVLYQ
row,IC50,SMILES
1,1.67 nM,"O=C(c1cccc([C@H]2C[C@@H]2c2cc(-c3c[nH]c(=O)[nH]c3=O)nn3ccnc23)c1)N1CCC(F)(F)C1 (racemic) [Example 306, 5-(8-((1S,2S)-2-(3-(3,3-difluoropyrrolidine-1-carbonyl)phenyl)cyclopropyl)imidazo[1,2-b]pyridazin-6-yl)pyrimidine-2,4(1H,3H)-dione]"
2,16.1 nM,"CC1(C)CCN(C(=O)c2ccc([C@H]3C[C@@H]3c3cc(-c4c[nH]c(=O)[nH]c4=O)nn4ccnc34)cc2)C1 (racemic) [Example 307, 5-(8-((1S,2S)-2-(4-(3,3-dimethylpyrrolidine-1-carbonyl)phenyl)cyclopropyl)imidazo[1,2-b]pyridazin-6-yl)pyrimidine-2,4(1H,3H)-dione]"
3,5.47 nM,"CC1(C)CCN(C(=O)c2cccc([C@H]3C[C@@H]3c3cc(-c4c[nH]c(=O)[nH]c4=O)nn4ccnc34)c2)C1 (racemic) [Example 308, 5-(8-((1S,2S)-2-(3-(3,3-dimethylpyrrolidine-1-carbonyl)phenyl)cyclopropyl)imidazo[1,2-b]pyridazin-6-yl)pyrimidine-2,4(1H,3H)-dione]"
4,42.3 nM,"O=c1[nH]cc(-c2cc([C@H]3C[C@@H]3c3ccccc3OC(F)(F)F)c3nccn3n2)c(=O)[nH]1 (racemic) [Example 309, 5-(8-((1S,2S)-2-(2-(trifluoromethoxy)phenyl)cyclopropyl)imidazo[1,2-b]pyridazin-6-yl)pyrimidine-2,4(1H,3H)-dione]"
5,4.72 nM,"N#Cc1cncc([C@H]2C[C@@H]2c2cc(-c3c[nH]c(=O)[nH]c3=O)nn3ccnc23)c1 (racemic) [Example 311, 5-((1S,2S)-2-(6-(2,4-dioxo-1,2,3,4-tetrahydropyrimidin-5-yl)imidazo[1,2-b]pyridazin-8-yl)cyclopropyl)nicotinonitrile]"
6,1.29 nM,"CNC(=O)c1ccc([C@H]2C[C@@H]2c2cc(-c3c[nH]c(=O)[nH]c3=O)nn3c(F)cnc23)cc1 (racemic) [Example 312, 4-((1S,2S)-2-(6-(2,4-dioxo-1,2,3,4-tetrahydropyrimidin-5-yl)-3-fluoroimidazo[1,2-b]pyridazin-8-yl)cyclopropyl)-N-methylbenzamide]"
7,1.12 nM,"Cc1nc2cc([C@H]3C[C@@H]3c3cc(-c4c[nH]c(=O)[nH]c4=O)nn4ccnc34)ccc2s1 (racemic) [Example 321, 5-(8-((1S,2S)-2-(2-methylbenzo[d]thiazol-5-yl)cyclopropyl)imidazo[1,2-b]pyridazin-6-yl)pyrimidine-2,4(1H,3H)-dione]"
8,0.91 nM,"Cn1ncc2ccc([C@H]3C[C@@H]3c3cc(-c4c[nH]c(=O)[nH]c4=O)nn4ccnc34)cc21 (racemic) [Example 326, 5-(8-((1S,2S)-2-(1-methyl-1H-indazol-6-yl)cyclopropyl)imidazo[1,2-b]pyridazin-6-yl)pyrimidine-2,4(1H,3H)-dione]"
9,1.74 nM,"O=c1[nH]cc(-c2cc([C@H]3C[C@@H]3c3ccc(OC(F)(F)F)cc3)c3nccn3n2)c(=O)[nH]1 (racemic) [Example 359, 5-(8-((1S,2S)-2-(4-(trifluoromethoxy)phenyl)cyclopropyl)imidazo[1,2-b]pyridazin-6-yl)pyrimidine-2,4(1H,3H)-dione]"
10,0.92 nM,"O=c1[nH]cc(-c2cc([C@H]3C[C@@H]3c3ccc4c(c3)OC(F)(F)O4)c3nccn3n2)c(=O)[nH]1 (racemic) [Example 360, 5-(8-((1S,2S)-2-(2,2-difluorobenzo[d][1,3]dioxol-5-yl)cyclopropyl)imidazo[1,2-b]pyridazin-6-yl)pyrimidine-2,4(1H,3H)-dione]"
11,2 nM,"O=c1[nH]cc(-c2cc([C@H]3C[C@@H]3c3ccc(OCC(F)(F)F)cn3)c3nccn3n2)c(=O)[nH]1 (racemic) [Example 363, 5-(8-((1S,2S)-2-(5-(2,2,2-trifluoroethoxy)pyridin-2-yl)cyclopropyl)imidazo[1,2-b]pyridazin-6-yl)pyrimidine-2,4(1H,3H)-dione]"

# Reference: US20240043427A1 (Gilead Sciences, Inc., priority 2020, published 2024)
